Reference: patent US12435087B2, “Modulators of DCN-1 and methods of use thereof” (Cellarity, Inc., priority 2023, dated 2025)
Read-outs that look alike come from different tables or passages of the source.

Tests used:
[1] = biological target: T1, DCN1 (DCUND1) protein PONY domain (Homo sapiens (Human), UniProt Q96GG9); test: Off-rate measurement of reversible covalent molecules (jump dilution TR-FRET with Cy5 probe); conditions: binding mode from off-rate measurement
Description: A TR-FRET assay was performed to classify the compounds as an irreversible covalent binder, a reversible covalent binder or a reversible binder.
An assay to measure the off-rate of reversible covalent molecules was developed. A typical covalent compound is assumed to stay bound to a protein for at least the life of that protein in the cell. In reality, there is a range of how long a covalent compounds remains bound before a reverse reaction takes place. Thus, some covalent bonds can be labeled as reversible as their reverse reaction takes place in a measurable amount of time under physiological conditions. The assay capitalizes on the range of covalent binders by using a high affinity covalent binder as a probe to displace the more reversible binders in an adaptation of the jump dilution method.
In this version of the jump dilution method, the increase in covalent probe binding over time was measured through a TR-FRET reaction between the covalent probe and the biotinylated target protein.
The recombinant form of the DCN1 (DCUND1) protein PONY domain was produced using an E. coli expression system at Viva Biotech (China). The DCN1 protein was biotinylated (EZ sulfo-NHS-LC-biotin; Thermofisher) for labeling with streptavidin terbium (Tb) cryptate in the reaction. This biotinylated protein was used in two forms of the TR-FRET assay as described below.
The off-rate measurement is executed in two steps based on the jump dilution method. […] The greatest dilution allowed within the constraints of the assay was chosen. These factors allow a competitive advantage for the covalent probe to replace the test compound when that compound releases from the target protein. The actual measure is the rate of increased TR-FRET signal as the covalent probe replaces the test compound over time. […] The resulting time dependent curve of the TR-FRET signal is fit to the following equation: Y=Y0+(Plateau−Y0)*(1−exp(−K*x))
K is the rate constant (1/unit of time). The residence time is defined as the inverse of K, the rate constant. The half-life is calculated as ln(2)/K.

[2] = biological target: T1, DCN1 (DCUND1) protein PONY domain; test: TR-FRET assay (binding to DCN-1, displacement of FAM-labeled probe)
Procedure, shortened: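 Compounds read at 1, 5 and 24 h, 0.1% final DMSO, by TR-FRET between terbium-streptavidin on biotinylated DCN1 PONY domain (E. coli) and a FAM-tagged non-covalent inhibitor probe. Two setups used, 5 nM protein with 20 nM labelled probe, or 0.31 nM protein with 100 nM labelled plus 800 nM unlabelled probe; buffer had TritonX and 200 mM NaCl. % activity relative to high (with probe) and low (without probe) controls.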

[3] = 24 hr after treatment with compound, read-out: TR FRET IC50 24 hr

T1 sequence (Q96GG9 60-248): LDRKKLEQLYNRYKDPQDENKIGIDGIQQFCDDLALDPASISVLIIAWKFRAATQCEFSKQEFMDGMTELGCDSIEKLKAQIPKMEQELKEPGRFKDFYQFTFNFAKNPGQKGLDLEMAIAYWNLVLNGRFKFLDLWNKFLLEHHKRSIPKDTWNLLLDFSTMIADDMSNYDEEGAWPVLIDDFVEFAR

| Structure (SMILES) | Category [1] | IC50 [2, 3] | IC50 ([2]; read-out: TR FRET IC50 1 hr, 1 hr after treatment with compound) | IC50 ([2]; TR FRET IC50 1 hr (nM), 1 hr after treatment with compound) |
| --- | --- | --- | --- | --- |
| C=C(CN1CCOCC1)C(=O)Nc1cccc([C@@H]2c3c(C)nn(-c4ccccc4)c3N(CC)C(=O)[C@H]2NC(=O)c2cccc(C(F)(F)F)c2)c1 [Compound I-2, N-((4R,5S)-7-ethyl-3-methyl-4-(3-(2-(morpholinomethyl)acrylamido)phenyl)-6-oxo-1-phenyl-4,5,6,7-tetrahydro-1H-pyrazolo[3,4-b]pyridin-5-yl)-3-(trifluoromethyl)benzamide] | irreversible | ≤ 200 nM | ≤ 200 nM | – |
| C/C=C(\CN1CCN(C2COC2)CC1)C(=O)Nc1cccc([C@@H]2c3cnn(-c4ccccc4)c3N(CC)C(=O)[C@H]2NC(=O)c2csc(C(F)(F)F)n2)c1 [Compound I-234, N-((4R,5S)-7-ethyl-4-(3-((E)-2-((4-(oxetan-3-yl)piperazin-1-yl)methyl)but-2-enamido)phenyl)-6-oxo-1-phenyl-4,5,6,7-tetrahydro-1H-pyrazolo[3,4-b]pyridin-5-yl)-2-(trifluoromethyl)thiazole-4-carboxamide] | irreversible | ≤ 200 nM | – | ≤ 200 nM |
